EP1345943B1, “INHIBITORS OF PAPILLOMA VIRUS” (BOEHRINGER INGELHEIM (CANADA) LTD., priority 2000, dated 2002)

These compounds were tested against E1-E2-DNA complex (Human papillomavirus 11, UniProt P04015) (assay: E2-dependent E1 DNA binding assay (E1-E2 DNA assay)). Details: E1-E2 DNA assay of Example 11, HPV-11.
E1-E2-DNA complex, sequence (P04015 whole entry, one chain of several): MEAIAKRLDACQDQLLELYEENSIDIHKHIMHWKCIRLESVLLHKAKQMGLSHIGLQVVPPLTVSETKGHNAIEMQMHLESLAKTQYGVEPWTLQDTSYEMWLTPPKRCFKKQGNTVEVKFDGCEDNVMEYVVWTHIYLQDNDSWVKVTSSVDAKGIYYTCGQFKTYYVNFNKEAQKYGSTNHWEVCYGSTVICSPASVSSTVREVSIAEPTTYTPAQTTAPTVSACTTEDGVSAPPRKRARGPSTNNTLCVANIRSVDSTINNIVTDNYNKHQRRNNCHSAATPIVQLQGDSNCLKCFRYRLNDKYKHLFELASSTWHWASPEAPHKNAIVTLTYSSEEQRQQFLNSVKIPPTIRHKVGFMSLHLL
Experimental: This particular assay determines the ability of a test compound to inhibit the activity (IC50) of HPV-11 DNA replication. More specifically, in the assay described herein, the inhibitory activity of the test compound is evaluated based on its ability to interfere with the E1-E2-DNA origin of replication interaction, thereby inhibiting initiation of viral DNA replication.
This assay was modeled on a similar assay for SV40 T Antigen described by McKay (J. Mol. Biol., 1981,145:471). A 400bp radiolabeled DNA probe, containing the -HPV-11 origin of replication (Chiang et al.., 1992, Proc. Natl.-Acad. Sci. USA 89:5799) was produced by pcr, using plasmid pBluescript™ SK encoding the origin (nucleotides 7886-61 of the HPV-11 genome in unique BAMH1 site) as template and primers flanking the origin. Radiolabel was incorporated as [33p]dCTP. Binding assay buffer consisted of: 20 mM Tris pH 7.6, 100 mM NaCI, 1 mM DTT, 1 mM EDTA.
Other reagents used were protein A-SPA beads (type II, Amersham) and K72 rabbit polyclonal antiserum, raised against a peptide corresponding to the C-terminal 14 amino acids of HPV-11 E1. Following the protocol from Amersham, one bottle of beads was mixed with 25 mL of binding assay buffer. For the assay, a saturating amount of K72 antiserum was added to the beads and the mixture was incubated for 1 h, washed with one volume of binding assay buffer, and then resuspended in the same volume of fresh binding assay buffer. Binding reactions contained 8 ng of E2, approximately 100-200 ng of purified E1, and 0.4 ng of radiolabeled probe in a total of 80 µL of binding assay buffer. After 1 h at room temperature, 25 µL of K72 antibody-SPA bead suspension was added to with the binding reaction and mixed. After an additional hour of incubation at room temperature, the reactions were centrifuged briefly to pellet the beads and the extent of complex formation was determined by scintillation counting on a Packard TopCount™. Typically, the signal for reactions containing E1 and E2 was 20-30 fold higher than the background observed when either E1, E2, or both was omitted.
`CC(=O)c1ccc(NC(=O)C2C(c3ccc(C)c(C)c3)OC3(C(=O)c4ccccc4C3=O)C2C(=O)O)cc1` (centres unmarked) [Compound 1056] showed an IC50 of 0.5 to 5 µM.
`O=C(Nc1ccc(NC(=O)C2C(c3ccc(Cl)c(Cl)c3)OC3(C(=O)c4ccccc4C3=O)C2C(=O)O)cc1)c1ccccc1` (centres unmarked) [Compound 1057] showed an IC50 of 0.5 to 5 µM.
`O=C(NC1CC1c1ccccc1)C1C(c2ccc(Cl)c(Cl)c2)OC2(C(=O)c3ccccc3C2=O)C1C(=O)O` (centres unmarked) [Compound 1058] was tested, and the IC50 was 0.5 to 5 µM.
Compound `O=C(Nc1ccc(N2CCOCC2)cc1)C1C(c2ccc(F)c(F)c2)OC2(C(=O)c3ccccc3C2=O)C1C(=O)O` (centres unmarked) [Compound 1059] has an IC50 of 0.5 to 5 µM.
With `CC(C)(C)c1ccc(NC(=O)C2C(c3ccc(Cl)c(Cl)c3)OC3(C(=O)c4ccccc4C3=O)C2C(=O)O)cc1` (centres unmarked) [Compound 1060] the IC50 was 0.5 to 5 µM.
Work on `O=C(Nc1cnc2ccccc2c1)C1C(c2ccc(F)c(F)c2)OC2(C(=O)c3ccccc3C2=O)C1C(=O)O` (centres unmarked) [Compound 1061] yielded an IC50 of 5 to 50 µM.
Compound `O=C(Nc1ccc(Cl)cc1)C1C(c2ccc(F)c(F)c2)OC2(C(=O)c3ccccc3C2=O)C1C(=O)O` (centres unmarked) [Compound 1062] has an IC50 of 5 to 50 µM.
Work on `O=C(Nc1ccc(Cl)cc1)C1C(c2ccc(Cl)c(Cl)c2)OC2(C(=O)c3ccccc3C2=O)C1C(=O)O` (centres unmarked) [Compound 1063] yielded an IC50 of 0.5 to 5 µM.
In the case of `CC(=O)c1ccc(NC(=O)C2C(c3ccc(F)c(F)c3)OC3(C(=O)c4ccccc4C3=O)C2C(=O)O)cc1` (centres unmarked) [Compound 1064], the IC50 is reported as 5 to 50 µM.
`Cc1ccc(NC(=O)C2C(c3ccc(Cl)c(Cl)c3)OC3(C(=O)c4ccccc4C3=O)C2C(=O)O)cc1` (centres unmarked) [Compound 1065] was tested, and the IC50 was 0.5 to 5 µM.
With `O=C(NC1CC1c1ccccc1)C1C(c2ccc(Cl)c(Cl)c2)OC2(C(=O)c3ccccc3C2=O)C1C(=O)O` (centres unmarked) [Compound 1066] the IC50 was less than 0.5 µM.
Compound `CC(=O)c1ccc(NC(=O)C2C(c3ccc(C(F)(F)F)c(F)c3)OC3(C(=O)c4ccccc4C3=O)C2C(=O)O)cc1` (centres unmarked) [Compound 1067] has an IC50 of 5 to 50 µM.
Work on `O=C(Nc1ccccc1)C1C(c2ccc(F)c(F)c2)OC2(C(=O)c3ccccc3C2=O)C1C(=O)O` (centres unmarked) [Compound 1068] yielded an IC50 of 5 to 50 µM.
For `N#Cc1ccc(NC(=O)C2C(c3ccc(Cl)c(Cl)c3)OC3(C(=O)c4ccccc4C3=O)C2C(=O)O)cc1` (centres unmarked) [Compound 1070], the IC50 was 0.5 to 5 µM.
`Cc1ccc(C2OC3(C(=O)c4ccccc4C3=O)C(C(=O)O)C2C(=O)Nc2cnc3ccccc3c2)cc1C` (centres unmarked) [Compound 1071] showed an IC50 of 5 to 50 µM.
For `CSc1ccc(NC(=O)C2C(c3ccc(F)c(F)c3)OC3(C(=O)c4ccccc4C3=O)C2C(=O)O)cc1` (centres unmarked) [Compound 1073], the IC50 was 5 to 50 µM.
Compound `CC(C)(C)c1ccc(NC(=O)C2C(c3ccc(Br)c(Br)c3)OC3(C(=O)c4ccccc4C3=O)C2C(=O)O)cc1` (centres unmarked) [Compound 1079] has an IC50 of 5 to 50 µM.
Work on `N#Cc1cccc(C2OC3(C(=O)c4ccccc4C3=O)C(C(=O)O)C2C(=O)Nc2ccc3c(c2)OCO3)c1` (centres unmarked) [Compound 1080] yielded an IC50 of 5 to 50 µM.
Compound `CSc1ccc(NC(=O)C2C(c3ccc(Br)c(Br)c3)OC3(C(=O)c4ccccc4C3=O)C2C(=O)O)cc1` (centres unmarked) [Compound 1081] has an IC50 of less than 0.5 µM.
In the case of `O=C(NC1CCCCC1)C1C(c2ccc(Cl)c(Cl)c2)OC2(C(=O)c3ccccc3C2=O)C1C(=O)O` (centres unmarked) [Compound 1082], the IC50 is reported as 0.5 to 5 µM.
Work on `O=C(Nc1ccc(-c2csnn2)cc1)C1C(c2ccc(F)c(F)c2)OC2(C(=O)c3ccccc3C2=O)C1C(=O)O` (centres unmarked) [Compound 1083] yielded an IC50 of 0.5 to 5 µM.
Work on `O=C(Nc1ccc2c(c1)OCO2)C1C(c2ccc(Br)c(Br)c2)OC2(C(=O)c3ccccc3C2=O)C1C(=O)O` (centres unmarked) [Compound 1084] yielded an IC50 of less than 0.5 µM.
For `N#Cc1cccc(C2OC3(C(=O)c4ccccc4C3=O)C(C(=O)O)C2C(=O)Nc2ccc(N3CCOCC3)cc2)c1` (centres unmarked) [Compound 1085], the IC50 was 5 to 50 µM.
Compound `CS(=O)(=O)c1ccc(NC(=O)C2C(c3ccc(Br)c(Br)c3)OC3(C(=O)c4ccccc4C3=O)C2C(=O)O)cc1` (centres unmarked) [Compound 1086] has an IC50 of less than 0.5 µM.
`CC(=O)Nc1ccc(NC(=O)C2C(c3ccc(Br)c(Br)c3)OC3(C(=O)c4ccccc4C3=O)C2C(=O)O)cc1` (centres unmarked) [Compound 1092] gave an IC50 of less than 0.5 µM.
In the case of `O=C(NN1CCOCC1)C1C(c2ccc(F)c(Cl)c2)OC2(C(=O)c3ccccc3C2=O)C1C(=O)O` (centres unmarked) [Compound 1093], the IC50 is reported as 5 to 50 µM.
Compound `CC(=O)c1ccc(NC(=O)C2C(c3ccc(F)c(Cl)c3)OC3(C(=O)c4ccccc4C3=O)C2C(=O)O)cc1` (centres unmarked) [Compound 1094] has an IC50 of 0.5 to 5 µM.
In the case of `O=C(Nc1cc(F)cc(F)c1)C1C(c2ccc(Cl)c(Cl)c2)OC2(C(=O)c3ccccc3C2=O)C1C(=O)O` (centres unmarked) [Compound 1096], the IC50 is reported as 0.5 to 5 µM.
`O=C(NCCc1ccccc1)C1C(c2ccc(Br)c(Br)c2)OC2(C(=O)c3ccccc3C2=O)C1C(=O)O` (centres unmarked) [Compound 1097] showed an IC50 of less than 0.5 µM.
`O=C(NC1Cc2ccccc2C1)C1C(c2ccc(Cl)c(Cl)c2)OC2(C(=O)c3ccccc3C2=O)C1C(=O)O` (centres unmarked) [Compound 1098] was tested, and the IC50 was 0.5 to 5 µM.
`O=C(NC1CCCCC1)C1C(c2ccc(Br)c(Br)c2)OC2(C(=O)c3ccccc3C2=O)C1C(=O)O` (centres unmarked) [Compound 1099] was tested, and the IC50 was less than 0.5 µM.
For `O=C(c1ccccc1)c1cccc(NC(=O)C2C(c3ccc(Cl)c(Cl)c3)OC3(C(=O)c4ccccc4C3=O)C2C(=O)O)c1` (centres unmarked) [Compound 1100], the IC50 was 0.5 to 5 µM.
For `O=C(Nc1ccc(Cl)cc1)C1C(c2ccc(Cl)c(Cl)c2)OC2(C(=O)c3ccccc3C2=O)C1C(=O)O` (centres unmarked) [Compound 1101], the IC50 was 0.5 to 5 µM.
In the case of `O=C(c1ccccc1)c1cccc(NC(=O)C2C(c3ccc(Br)c(Br)c3)OC3(C(=O)c4ccccc4C3=O)C2C(=O)O)c1` (centres unmarked) [Compound 1103], the IC50 is reported as 0.5 to 5 µM.
With `O=C(Nc1ccc(Br)c(Cl)c1)C1C(c2ccc(Cl)c(Cl)c2)OC2(C(=O)c3ccccc3C2=O)C1C(=O)O` (centres unmarked) [Compound 1104] the IC50 was 0.5 to 5 µM.
With `O=C(Nc1ccc(F)c(F)c1)C1C(c2ccc(Br)c(Br)c2)OC2(C(=O)c3ccccc3C2=O)C1C(=O)O` (centres unmarked) [Compound 1105] the IC50 was 0.5 to 5 µM.
`CC(=O)c1ccc(NC(=O)C2C(c3ccc(Cl)c(Cl)c3)OC3(C(=O)c4ccc(F)cc4C3=O)C2C(=O)O)cc1` (centres unmarked) [Compound 1106] showed an IC50 of 0.5 to 5 µM.
In the case of `CC(=O)c1ccc(NC(=O)C2C(c3ccc(Cl)c(Cl)c3)OC3(C(=O)c4ccc(F)cc4C3=O)C2C(=O)O)cc1` (centres unmarked) [Compound 1107], the IC50 is reported as 0.5 to 5 µM.
`CC(=O)Nc1ccc(NC(=O)C2C(c3ccc(Cl)c(Cl)c3)OC3(C(=O)c4ccccc4C3=O)C2C(=O)O)cc1` (centres unmarked) [Compound 1108] showed an IC50 of 0.5 to 5 µM.
For `O=C(Nc1ccc(Cl)cc1)C1C(c2ccc(Br)c(Br)c2)OC2(C(=O)c3ccccc3C2=O)C1C(=O)O` (centres unmarked) [Compound 1110], the IC50 was less than 0.5 µM.
`O=C(Nc1ccc(F)c(F)c1)C1C(c2ccc(Cl)c(Cl)c2)OC2(C(=O)c3ccccc3C2=O)C1C(=O)O` (centres unmarked) [Compound 1111] was tested, and the IC50 was 0.5 to 5 µM.
`O=C(Nc1ccc(OC(F)(F)F)cc1)C1C(c2ccc(Cl)c(Cl)c2)OC2(C(=O)c3ccccc3C2=O)C1C(=O)O` (centres unmarked) [Compound 1112] gave an IC50 of 0.5 to 5 µM.
`O=C(NC1Cc2ccccc2C1)C1C(c2ccc(Br)c(Br)c2)OC2(C(=O)c3ccccc3C2=O)C1C(=O)O` (centres unmarked) [Compound 1113] gave an IC50 of less than 0.5 µM.
For `CC(=O)c1ccc(NC(=O)C2C(c3ccc(Cl)c(Cl)c3)OC3(C(=O)c4ccc(Cl)cc4C3=O)C2C(=O)O)cc1` (centres unmarked) [Compound 1114], the IC50 was 0.5 to 5 µM.
`O=C(NCCc1ccccc1)C1C(c2ccc(F)c(Cl)c2)OC2(C(=O)c3ccccc3C2=O)C1C(=O)O` (centres unmarked) [Compound 1115] was tested, and the IC50 was 0.5 to 5 µM.
Work on `CC(=O)c1ccc(NC(=O)C2C(c3ccc(Cl)c(Cl)c3)OC3(C(=O)c4ccc(Cl)cc4C3=O)C2C(=O)O)cc1` (centres unmarked) [Compound 1116] yielded an IC50 of 5 to 50 µM.
In the case of `O=C(Nc1cc2c(cc1[N+](=O)[O-])OCO2)C1C(c2ccc(Cl)c(Cl)c2)OC2(C(=O)c3ccccc3C2=O)C1C(=O)O` (centres unmarked) [Compound 1117], the IC50 is reported as 0.5 to 5 µM.
In the case of `O=C(Nc1ccc(OC(F)(F)F)cc1)C1C(c2ccc(Br)c(Br)c2)OC2(C(=O)c3ccccc3C2=O)C1C(=O)O` (centres unmarked) [Compound 1118], the IC50 is reported as 0.5 to 5 µM.
`O=C(Nc1cccc(Cl)c1)C1C(c2ccc(Br)c(Br)c2)OC2(C(=O)c3ccccc3C2=O)C1C(=O)O` (centres unmarked) [Compound 1119] was tested, and the IC50 was less than 0.5 µM.
`O=C(Nc1cc(F)cc(F)c1)C1C(c2ccc(F)c(Cl)c2)OC2(C(=O)c3ccccc3C2=O)C1C(=O)O` (centres unmarked) [Compound 1120] gave an IC50 of 0.5 to 5 µM.
Compound `O=C(Nc1ccc(Br)c(Cl)c1)C1C(c2ccc(F)c(Cl)c2)OC2(C(=O)c3ccccc3C2=O)C1C(=O)O` (centres unmarked) [Compound 1121] has an IC50 of 0.5 to 5 µM.
In the case of `O=C(Nc1ccc(F)c(F)c1)C1C(c2ccc(F)c(Cl)c2)OC2(C(=O)c3ccccc3C2=O)C1C(=O)O` (centres unmarked) [Compound 1122], the IC50 is reported as 5 to 50 µM.
With `O=C(Nc1ccccc1Cl)C1C(c2ccc(Cl)c(Cl)c2)OC2(C(=O)c3ccccc3C2=O)C1C(=O)O` (centres unmarked) [Compound 1123] the IC50 was less than 0.5 µM.
In the case of `COc1ccccc1NC(=O)C1C(c2ccc(Cl)c(Cl)c2)OC2(C(=O)c3ccccc3C2=O)C1C(=O)O` (centres unmarked) [Compound 1124], the IC50 is reported as 0.5 to 5 µM.
`O=C(Nc1ccccc1F)C1C(c2ccc(Cl)c(Cl)c2)OC2(C(=O)c3ccccc3C2=O)C1C(=O)O` (centres unmarked) [Compound 1125] showed an IC50 of less than 0.5 µM.
`Cc1cc(C)cc(NC(=O)C2C(c3ccc(Cl)c(Cl)c3)OC3(C(=O)c4ccccc4C3=O)C2C(=O)O)c1` (centres unmarked) [Compound 1126] gave an IC50 of 0.5 to 5 µM.
